Experimental data as given in PMC6039563, “Functional Identification and Characterization of the Diuretic Hormone 31 (DH31) Signaling System in the Green Shore Crab, Carcinus maenas” (Frontiers in Neuroscience, 2018).
Ends that are not written are not given here.

Assays:
C. maenas DH31R [1] = target: T1, C. maenas DH31R (Carcinus maenas, UniProt A0A345BTT1); experiment: aequorin luminescence Ca2+ mobilization assay, CHO-K1-Aeq-Gα16 cells transiently expressing DH31R; format: cell-based; settings: for luminescence response / activation of DH31R: DH31R-transfected CHO-K1-Aeq cells, tested up to micromolar levels; for EC50: read-out: EC50 of luminescence response
T1 sequence (A0A345BTT1 1-442): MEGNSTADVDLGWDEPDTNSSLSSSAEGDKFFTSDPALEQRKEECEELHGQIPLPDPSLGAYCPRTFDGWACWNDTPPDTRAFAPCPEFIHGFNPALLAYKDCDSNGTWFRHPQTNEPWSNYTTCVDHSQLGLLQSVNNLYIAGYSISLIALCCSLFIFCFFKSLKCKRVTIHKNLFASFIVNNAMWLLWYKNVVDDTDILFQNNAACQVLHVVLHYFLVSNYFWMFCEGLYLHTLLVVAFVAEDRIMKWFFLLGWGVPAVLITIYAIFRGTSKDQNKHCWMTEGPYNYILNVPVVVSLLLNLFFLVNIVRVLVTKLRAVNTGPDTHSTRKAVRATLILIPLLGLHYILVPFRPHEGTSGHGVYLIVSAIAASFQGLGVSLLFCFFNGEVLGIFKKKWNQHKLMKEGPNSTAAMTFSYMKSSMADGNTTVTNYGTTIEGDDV
Experimental: (§1) Cells were then diluted 10-fold prior to assay.
Amino acid sequences are shown in Supplementary Table S2. […] Receptor responses were normalized against total Ca^2+ luminescence.

C. maenas DH31R [2] = target: T1, C. maenas DH31R; experiment: cell-based
Experimental: as §1
Amino acid sequences are shown in Supplementary Table S2. […] Ca^2+ evoked luminescence was recorded for 40 s, followed by cell lysis (injection of 0.3% Triton-X 100 in BSA medium), and light emission recorded for a further 10 s. […] Receptor responses were normalized against total Ca^2+ luminescence.

[3] = CHO-K1-Aeq-Gα16 cells transiently expressing DH31R, simultaneously performed experiments with three DH31s (Figure 3 main panel), means of n = 4

Substance	luminescence response / activation of DH31R (C. maenas DH31R [1])	EC50 (C. maenas DH31R [1]; [3])	also measured
MQRPQGPSLSVANPIEVLRSRLLLEIARRRMKEQDASRVSKNRQYLQQIG [R. prolixus CRF-like DH, Rhodnius prolixus corticotropin releasing factor-like diuretic hormone (I. Orchard, Toronto)]	No luminescence responses		
GLDLGLSRGFSGSQAAKHLMGLAAANYAGGP-NH2 [Diploptera punctata DH31]		~30 nM	
GLDMGLGRGFSGSQAAKHLMGLAAANYAGGP-NH2 [C. maenas DH31]		~30 nM	EC50 (C. maenas DH31R [1]; CHO-K1-Aeq-Gα16 cells transfected with DH31R, Figure 3 inset, independent set of transfections, means of N = 4): ~15 nM; EC50 (C. maenas DH31R [2]): ~15 nM
GLDLGLGRGFSGSQAAKHLMGLAAANFAGGP-NH2 [Tribolium castaneum DH31]		~30 nM	
NSELINSLGLPKVMNDA-NH2 [C. maenas PDH-1, C. maenas pigment dispersing hormone-1 (Liverpool University)]	No luminescence responses		luminescence response / activation of DH31R (C. maenas DH31R [1]; listed as PDH-1): does not activate
